Assay results taken from patent US20030130298A1, “Cd45 inhibitors” (priority 1999, published 2003).

Assays:
[1] = molecular target: T1, CD45 (Homo sapiens, UniProt P08575); assay: Phosphatase assay using lck 10-mer as substrate; type: biochemical; settings: lck carboxy-terminal peptide TEGQpYQPQP substrate, read-out: Ick IC50
T1 construct: purchased BIOMOL (Plymouth Meeting, P.A.)
T1 sequence (P08575 599-1306 limits assumed): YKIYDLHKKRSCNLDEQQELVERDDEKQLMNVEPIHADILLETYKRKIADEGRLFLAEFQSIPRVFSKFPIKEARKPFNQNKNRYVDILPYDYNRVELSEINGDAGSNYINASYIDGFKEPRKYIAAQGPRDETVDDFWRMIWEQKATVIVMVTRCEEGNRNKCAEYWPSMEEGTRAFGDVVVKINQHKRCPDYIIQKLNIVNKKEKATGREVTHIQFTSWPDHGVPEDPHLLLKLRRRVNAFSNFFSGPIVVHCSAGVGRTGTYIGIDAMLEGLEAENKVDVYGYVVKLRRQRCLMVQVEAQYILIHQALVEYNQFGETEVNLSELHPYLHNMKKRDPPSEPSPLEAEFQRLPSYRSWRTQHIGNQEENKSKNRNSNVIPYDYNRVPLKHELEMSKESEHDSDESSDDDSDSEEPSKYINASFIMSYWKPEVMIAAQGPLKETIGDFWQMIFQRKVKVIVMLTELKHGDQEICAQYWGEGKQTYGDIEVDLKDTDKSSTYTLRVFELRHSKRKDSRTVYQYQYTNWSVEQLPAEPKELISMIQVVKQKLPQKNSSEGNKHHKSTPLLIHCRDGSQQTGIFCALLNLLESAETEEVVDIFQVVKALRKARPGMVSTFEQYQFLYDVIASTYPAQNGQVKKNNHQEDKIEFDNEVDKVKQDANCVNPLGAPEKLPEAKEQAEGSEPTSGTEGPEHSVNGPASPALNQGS
Procedure: (§1) Potent inhibitors of CD45 have been discovered. Such inhibitors are useful for the treatment of various autoimmune disorders as well as for treatment of OGR. Inhibition of the phosphatase activity of CD45 by compounds of the present invention has been shown by incubating the cytosolic portion of CD45 with the compounds and p-nitrophenyl phosphate (pNPP), a phosphatase substrate. Spectrophotometric monitoring has shown that the liberation of p-nitrophenol from the substrate by CD45 is inhibited in the presence of the compounds disclosed herein. Inhibition of the phosphatase activity of CD45 by compounds of the present invention has also been shown using a p56^lckcarboxy-terminal phosphorylated peptide as a substrate.
Phosphatase activity was assayed in 96 well plates in a buffer containing final concentrations of 25 mM HEPES at pH 7.2, 5 mM DTT and 10 μg/mL BSA, using the lck carboxy-terminal peptide TEGQpYQPQP as the substrate (Cho, H., Krishnaraj, R., Itoh, M., Kitas, E., Bannwarth, W., Saito, H., Walsh, C. T. 1993. Substrate specificities of catalytic fragments of protein tyrosine phosphatases (HPTPb, LAR, and CD45) toward the phosphotyrosylpeptide substrates and thiophosphotyrosylated peptides as inhibitors. Protein Science 2:977-984). Compounds were tested in a range from 30 to 0.01 μM in a final concentration of 5% DMSO. Enzyme was incubated with substrate, with or without compound, at room temperature for 1.5 h. At the end of the incubation period, BIOMOL “Green Reagent” (BIOMOL, Plymouth Meeting, Pa.) was added to each well, the plates incubated at room temperature for 30 min and absorbance read at 620 nm.

[2] = molecular target: T1, CD45; assay: Phosphatase assay using pNPP as substrate; type: biochemical; settings: pH 7.0
Procedure: as §1
CD45 enzyme was obtained from BIOMOL (Plymouth Meeting, P.A.). Phosphatase activity was assayed in a buffer containing final concentrations of 25 mM imidazole at pH 7.0, 50 mM NaCl, 2.5 mM ethylenediaminetetraacetic acid (“EDTA”), 5 mM dithiothreitol (“DTT”) and 10 μg/mL bovine serum albumin (“BSA”) using pNPP as a substrate. […] Activity was measured by following the increase in absorbance at 405 nm using a SpectraMax Plus spectrophotometric plate reader (Molecular Devices, Sunnyvale, Calif.).

[3] = system: Peripheral blood mononuclear cells (T cells); assay: T cell proliferation assay (anti-CD3 OKT3 activated PBMC, [3H]thymidine); type: cell-based; settings: Homo sapiens; PBMC activated with OKT3 30 ng/mL; read-out: T cell prolif. IC50
Procedure: Whole blood was obtained from healthy human blood donors. Peripheral blood mononuclear cells (“PBMC”) were isolated using Lymphoprep density-gradient centrifugation (Nycomed Amersham, Oslo, Norway), washed, counted and resuspended at 2×10^6 cells/mL in RPMI 1640 medium containing glutamine, 0.1 mg/mL gentamycin and 10% heat inactivated human serum. PBMC were transferred to 96-well plates (2×10^5 cells/well) containing compound or vehicle control, with the final concentration of DMSO not to exceed 0.3%, and incubated for 1 hour before addition of the activating anti-CD3 antibody, OKT3 (30 ng/mL). After 24 hours in culture, the cells were pulsed with [^3H]thymidine (1 μCi/well) overnight and harvested the next day onto 96-well Packard GF/C filter plates using a Packard Cell Harvester (Packard Instruments, Meriden, Conn.). The filter plate was dried, the bottom of the plate sealed, 25 μL of Microscint 20 scintillation fluid added to each well, the top of the plate sealed with TopSeal-A, and the plate counted on a Packard TopCount. The data from the TopCount is transferred into Excel 5 (Microsoft, Redmond, Wash.) and formatted for EC50 determination using Prism software (GraphPad Software, San Diego, Calif.).

[4] = Cytotoxicity assay (Calcein-AM uptake); type: cell-based; settings: human, PHA-expanded T-cell lymphoblasts derived from PBMC, overnight incubation, Calcein-AM viability
Procedure: Calcein-AM (Molecular Probes, Eugene, Oreg.) uptake, as a quantitative measure of cell viability, was used to evaluate the toxic effect of compounds on T cells.
The T-cell lymphoblasts were purified by separation over Lymphoprep, plated at 2×10 ^5/well in a round bottom 96-well plate containing RPMI with compound and incubated overnight at 37° C. in an incubator containing 5% CO2. The dilution scheme and culture media were the same as those used in the T-cell proliferation assay. After the incubation period, cells were washed with Dulbecco's phosphate- buffered saline (D-PBS) and incubated with 1 μM Calcein-AM for 30-45 min in D-PBS as described in the technical sheet provided with The LIVE/DEAD Viability/Cytotoxicity Kit from Molecular Probes.

| IC50 ([1]; pH 7.2, 1.5 h) | IC50 [2] | IC50 ([1]; pH 7.2, […]) | SMILES | IC50 [3] | CC50 [4] |
| --- | --- | --- | --- | --- | --- |
| > 30000 nM | 2300 nM | – | O=C1C(=O)c2ncccc2-c2ccccc21 [Example 1, benzo[f]quinoline-5,6-dione] | 400 nM | 7000 nM |
| – | 1000 nM | 3100 nM | O=C1C(=O)c2cccnc2-c2ccccc21 [Example 2, benzo[h]quinoline-5,6-dione] | 240 nM | 2400 nM |
| – | 1100 nM | 4500 nM | O=C1C(=O)c2ccoc2-c2ccccc21 [Example 3, naphtho[,1,2b]furan-4,5-dione] | – | 3500 nM |
| > 30000 nM | 1500 nM | – | O=C1C(=O)c2ccsc2-c2ccccc21 [Example 4, naphtho[1,2-b]thiophene-4,5-dione] | – | 3500 nM |
